# According to PubChem BioAssay (NCI):
#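 A five-concentration, 48-hour dose response in 96-well plates underlies each endpoint, interpolated linearly between surrounding concentrations. GI50 is the concentration that inhibits growth by half. Definition used: TGI = concentration required for complete inhibition of growth.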
# Columns and labels:
# Assay in all cases: growth of human tumour cells (NCI), 48 h
# 786-0 renal = system: 786-0 renal
# A498 renal = system: A498 renal
# A549 NSCLC = system: A549 NSCLC
# ACHN renal = system: ACHN renal
# BT-549 breast = system: BT-549 breast
# CAKI-1 renal = system: CAKI-1 renal
# CCRF-CEM leukemia = system: CCRF-CEM leukemia
# COLO 205 colon = system: COLO 205 colon
# DU-145 prostate = system: DU-145 prostate
# EKVX NSCLC = system: EKVX NSCLC
# HCC-2998 colon = system: HCC-2998 colon
# HCT-116 colon = system: HCT-116 colon
# HCT-15 colon = system: HCT-15 colon
# HL-60(TB) leukemia = system: HL-60(TB) leukemia
# HOP-62 NSCLC = system: HOP-62 NSCLC
# HOP-92 NSCLC = system: HOP-92 NSCLC
# HS 578T breast = system: HS 578T breast
# HT29 colon = system: HT29 colon
# IGROV1 ovarian = system: IGROV1 ovarian
# K-562 leukemia = system: K-562 leukemia
# KM12 colon = system: KM12 colon
# LOX IMVI melanoma = system: LOX IMVI melanoma
# M14 melanoma = system: M14 melanoma
# MALME-3M melanoma = system: MALME-3M melanoma
# MCF7 breast = system: MCF7 breast
# MDA-MB-231 breast = system: MDA-MB-231 breast
# MDA-MB-435 = system: MDA-MB-435
# MOLT-4 leukemia = system: MOLT-4 leukemia
# NCI-H226 lung = system: NCI-H226 lung
# NCI-H23 lung = system: NCI-H23 lung
# NCI-H460 lung = system: NCI-H460 lung
# NCI-H522 lung = system: NCI-H522 lung
# NCI/ADR-RES ovarian = system: NCI/ADR-RES ovarian
# OVCAR-3 ovarian = system: OVCAR-3 ovarian
# OVCAR-4 ovarian = system: OVCAR-4 ovarian
# OVCAR-5 ovarian = system: OVCAR-5 ovarian
# OVCAR-8 ovarian = system: OVCAR-8 ovarian
# PC-3 prostate = system: PC-3 prostate
# RPMI-8226 leukemia = system: RPMI-8226 leukemia
# RXF 393 renal = system: RXF 393 renal
# SF-268 CNS = system: SF-268 CNS
# SF-295 CNS = system: SF-295 CNS
# SF-539 CNS = system: SF-539 CNS
# SK-MEL-2 melanoma = system: SK-MEL-2 melanoma
# SK-MEL-28 melanoma = system: SK-MEL-28 melanoma
# SK-MEL-5 melanoma = system: SK-MEL-5 melanoma
# SK-OV-3 ovarian = system: SK-OV-3 ovarian
# SN12C renal = system: SN12C renal
# SNB-19 CNS = system: SNB-19 CNS
# SNB-75 CNS = system: SNB-75 CNS
# SR leukemia = system: SR leukemia
# SW-620 colon = system: SW-620 colon
# T-47D breast = system: T-47D breast
# TK-10 renal = system: TK-10 renal
# U251 CNS = system: U251 CNS
# UACC-257 melanoma = system: UACC-257 melanoma
# UACC-62 melanoma = system: UACC-62 melanoma
# UO-31 renal = system: UO-31 renal
structure (smiles),measurement,setting,value
Brc1ccc2[nH]cc([C@H]3CN[C@@H](c4c[nH]c5ccc(Br)cc45)CN3)c2c1,TGI,786-0 renal,5.68 µM
same,TGI,A498 renal,4.53 µM
same,TGI,A549 NSCLC,7.17 µM
same,TGI,ACHN renal,5.01 µM
same,TGI,BT-549 breast,> 62 µM
same,TGI,CAKI-1 renal,4.88 µM
same,TGI,CCRF-CEM leukemia,6.11 µM
same,TGI,COLO 205 colon,3.24 µM
same,TGI,DU-145 prostate,5.25 µM
same,TGI,EKVX NSCLC,6.46 µM
same,TGI,HCC-2998 colon,3.17 µM
same,TGI,HCT-116 colon,4.68 µM
same,TGI,HCT-15 colon,3.81 µM
same,TGI,HL-60(TB) leukemia,4.08 µM
same,TGI,HOP-62 NSCLC,> 41.2 µM
same,TGI,HOP-92 NSCLC,6.05 µM
same,TGI,HS 578T breast,28.2 µM
same,TGI,HT29 colon,4.68 µM
same,TGI,IGROV1 ovarian,3.78 µM
same,TGI,K-562 leukemia,4.54 µM
same,TGI,KM12 colon,3.25 µM
same,TGI,LOX IMVI melanoma,2.82 µM
same,TGI,M14 melanoma,3.38 µM
same,GI50,MALME-3M melanoma,2.79 µM
same,TGI,MALME-3M melanoma,15 µM
same,TGI,MCF7 breast,3.3 µM
same,GI50,MDA-MB-231 breast,1.85 µM
same,TGI,MDA-MB-231 breast,3.81 µM
same,TGI,MDA-MB-435,3.18 µM
same,TGI,MOLT-4 leukemia,4.95 µM
same,TGI,NCI-H226 lung,7.76 µM
same,TGI,NCI-H23 lung,3.62 µM
same,GI50,NCI-H460 lung,3.04 µM
same,TGI,NCI-H460 lung,16.3 µM
same,TGI,NCI-H522 lung,3.27 µM
same,TGI,NCI/ADR-RES ovarian,4.52 µM
same,TGI,OVCAR-3 ovarian,3.8 µM
same,TGI,OVCAR-4 ovarian,4.44 µM
same,GI50,OVCAR-5 ovarian,3.25 µM
same,TGI,OVCAR-5 ovarian,12 µM
same,TGI,OVCAR-8 ovarian,3.7 µM
same,TGI,PC-3 prostate,5.27 µM
same,TGI,RPMI-8226 leukemia,6.04 µM
same,TGI,RXF 393 renal,> 25.4 µM
same,TGI,SF-268 CNS,9.05 µM
same,GI50,SF-295 CNS,12.2 µM
same,TGI,SF-295 CNS,27.6 µM
same,TGI,SF-539 CNS,4.06 µM
same,TGI,SK-MEL-2 melanoma,5.54 µM
same,TGI,SK-MEL-28 melanoma,> 52.6 µM
same,TGI,SK-MEL-5 melanoma,6.77 µM
same,TGI,SK-OV-3 ovarian,> 23.5 µM
same,TGI,SN12C renal,9.89 µM
same,TGI,SNB-19 CNS,> 23.9 µM
same,GI50,SNB-75 CNS,1.5 µM
same,TGI,SNB-75 CNS,8.46 µM
same,TGI,SR leukemia,5.2 µM
same,TGI,SW-620 colon,> 22.1 µM
same,GI50,T-47D breast,3.62 µM
same,TGI,T-47D breast,18 µM
same,TGI,TK-10 renal,4.78 µM
same,TGI,U251 CNS,5.02 µM
same,GI50,UACC-257 melanoma,7.39 µM
same,TGI,UACC-257 melanoma,21.4 µM
same,TGI,UACC-62 melanoma,> 45.9 µM
same,TGI,UO-31 renal,5.29 µM
